The assay deals with T1, Human M4 (Homo sapiens, UniProt P08173).
T1 construct: expressed in transfected cells
T1 sequence (P08173 1-479): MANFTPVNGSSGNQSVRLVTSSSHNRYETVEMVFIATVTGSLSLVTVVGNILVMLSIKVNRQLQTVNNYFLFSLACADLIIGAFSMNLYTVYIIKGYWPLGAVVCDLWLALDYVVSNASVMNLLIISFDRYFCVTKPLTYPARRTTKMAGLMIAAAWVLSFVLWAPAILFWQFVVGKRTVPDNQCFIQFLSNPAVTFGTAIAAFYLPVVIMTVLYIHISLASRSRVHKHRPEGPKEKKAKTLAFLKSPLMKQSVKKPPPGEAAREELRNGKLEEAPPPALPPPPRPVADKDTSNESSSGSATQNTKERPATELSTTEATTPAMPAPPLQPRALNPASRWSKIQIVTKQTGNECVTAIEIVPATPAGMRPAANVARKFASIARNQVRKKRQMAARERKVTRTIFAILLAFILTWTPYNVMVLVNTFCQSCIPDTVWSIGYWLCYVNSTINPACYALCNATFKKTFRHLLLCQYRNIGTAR
Nature of the assay: mAChR M4 cell-based functional assay (calcium flux, potentiation of EC20 acetylcholine response), hM4-Gqi5 CHO-K1 cells. The conditions noted are these: for Emax / Emax at 30 µM: CHO-K1; for EC50: hM4-Gqi5 CHO-K1 cells, calcium flux, PAM of EC20 acetylcholine, read-out: Human M4 EC50; for Emax at 30 µM: % ACh maximum at 30 μM, human M4, read-out: Emax. As for the experimental part: Human and rat M4 cDNAs, along with the chimeric G protein Gqi5, were transfected into Chinese hamster ovary (CHO-K1) cells purchased from the American Type Culture Collection using Lipofectamine2000. hM4-Gqi5 cells were grown in Ham's F-12 medium containing 10% heat-inactivated fetal bovine serum (FBS), 20 mM HEPES, 50 μg/mL G418 sulfate, and 500 μg/mL Hygromycin B. rM4-Gqi5 cells were grown in DMEM containing 10% heat-inactivated FBS, 20 mM HEPES, 400 μg/mL G418 sulfate, and 500 μg/mL Hygromycin B.
For high throughput measurement of agonist-evoked increases in intracellular calcium, CHO-K1 cells stably expressing muscarinic receptors were plated in growth medium lacking G418 and hygromycin at 15,000 cells/20 μL/well in Greiner 384-well black-walled, tissue culture (TC)-treated, clear-bottom plates (VWR). Cells were incubated overnight at 37° C. and 5% CO2. The next day, cells were washed using an ELX 405 (BioTek) with assay buffer; the final volume was then aspirated to 20 μL. Next, 20 μL of a 2.3 μM stock of Fluo-4/acetoxymethyl ester (Invitrogen, Carlsbad, CA), prepared as a 2.3 mM stock in DMSO and mixed in a 1:1 ratio with 10% (w/v) Pluronic F-127 and diluted in assay buffer, was added to the wells and the cell plates were incubated for 50 min at 37° C. and 5% CO2. Dye was removed by washing with the ELX 405 and the final volume was aspirated to 20 μL. Compound master plates were formatted in an 11 point concentration-response curve (CRC) format (1:3 dilutions) in 100% DMSO with a starting concentration of 10 mM using a BRAVO liquid handler (Agilent). Test compound CRCs were then transferred to daughter plates (240 nL) using the Echo acoustic plate reformatter (Labcyte, Sunnyvale, CA) and then diluted into assay buffer (40 μL) to a 2× stock using a Thermo Fisher Combi (Thermo Fisher Scientific, Waltham, MA).
Calcium flux was measured using the Functional Drug Screening System (FDSS) 6000 or 7000 (Hamamatsu Corporation, Tokyo, Japan) as an increase in the fluorescent static ratio. Compounds were applied to cells (20 μL, 2×) using the automated system of the FDSS at 2-4 seconds into the protocol and the data were collected at 1 Hz. At 144 seconds, 10 μL of an EC20 concentration of the muscarinic receptor agonist acetylcholine was added (5×), followed by the addition of 12 μL of an EC80 concentration of acetylcholine at the 230 second time point (5×). Agonist activity was analyzed as a concentration-dependent increase in calcium mobilization upon compound addition. Positive allosteric modulator activity was analyzed as a concentration-dependent increase in the EC20 acetylcholine response. Antagonist activity was analyzed as a concentration-dependent decrease in the EC80 acetylcholine response. Concentration-response curves were generated using a four-parameter logistical equation in XLFit curve fitting software (IDBS, Bridgewater, NJ) for Excel (Microsoft, Redmond, WA) or Prism (GraphPad Software, Inc., San Diego, CA).
Compounds were synthesized as described above. Activity (EC50 and Emax) was determined in the mAChR M4 cell-based functional assay as described above and the data are shown in Tables 2-4. The compound number corresponds to the compound numbers used in Table 1.
A general note: Calcium flux is commonly read through the fluorescence of an indicator in the cells.

The record followed here is patent US20250002507A1, “7,8-DIHYDRO-5H-1,6-NAPHTHYRIDINE DERIVATIVES AS POSITIVE ALLOSTERIC MODULATORS OF THE MUSCARINIC ACETYLCHOLINE RECEPTOR M4 FOR TREATING NEUROLOGICAL AND PSYCHIATRIC DISORDERS” (Vanderbilt University, priority 2021, published 2025).

As a reminder, the Emax is the size of the effect at its maximum, as opposed to the concentration needed. In general, EC50 refers to the concentration at which the effect is half-maximal.

Regarding `Cc1c(N2CCc3ncccc3C2)nn2cnnc2c1C` [Compound 1, 6-(7,8-dimethyl-[1,2,4]triazolo[4,3-b]pyridazin-6-yl)-7,8-dihydro-5H-1,6-naphthyridine], the Emax came out at 97% and the EC50 amounted to 3970 nM.

For the molecule `Cc1c(N2CCc3ncc(-c4ccn(C)n4)cc3C2)nn2cnnc2c1C` [Compound 2, 6-(7,8-dimethyl-[1,2,4]triazolo[4,3-b]pyridazin-6-yl)-3-(1-methylpyrazol-3-yl)-7,8-dihydro-5H-1,6-naphthyridine], the Emax at 30 µM amounted to 102% and the EC50 came to 628 nM.

Take `Cc1c(N2CCc3ncc(C#N)cc3C2)nn2cnnc2c1C` [Compound 3, 6-(7,8-Dimethyl-[1,2,4]triazolo[4,3-b]pyridazin-6-yl)-7,8-dihydro-5H-1,6-naphthyridine-3-carbonitrile]: the Emax was determined as 69% and the concentration for a half-maximal effect (EC50) turned out to be 4510 nM.

In the case of `Cc1c(N2CCc3ncc(Oc4ccc(F)cc4)cc3C2)nn2cnnc2c1C` [Compound 4, 6-(7,8-dimethyl-[1,2,4]triazolo[4,3-b]pyridazin-6-yl)-3-(4-fluorophenoxy)-7,8-dihydro-5H-1,6-naphthyridine], the Emax at 30 µM stood at 87% and the EC50 came to 322 nM.

As for `Cc1cnc2c(c1)CN(c1nn3cnnc3c(C)c1C)CC2` [Compound 5, 6-(7,8-Dimethyl-[1,2,4]triazolo[4,3-b]pyridazin-6-yl)-3-methyl-7,8-dihydro-5H-1,6-naphthyridine], the Emax is 95% and the EC50 turned out to be 230 nM.

Take `Cc1c(N2CCc3ncc(Oc4ccc(OC(F)(F)F)c(F)c4)cc3C2)nn2cnnc2c1C` [Compound 6, 6-(7,8-dimethyl-[1,2,4]triazolo[4,3-b]pyridazin-6-yl)-3-[3-fluoro-4-(trifluoromethoxy)phenoxy]-7,8-dihydro-5H-1,6-naphthyridine]: the Emax at 30 µM is 33% and the EC50 worked out at 3620 nM.

With `Cc1c(N2CCc3ncc(Oc4ccc5c(c4)OCCO5)cc3C2)nn2cnnc2c1C` [Compound 7, 3-(2,3-dihydro-1,4-benzodioxin-6-yloxy)-6-(7,8-dimethyl-[1,2,4]triazolo[4,3-b]pyridazin-6-yl)-7,8-dihydro-5H-1,6-naphthyridine], the maximal effect (Emax) at 30 µM was 63% and the EC50 came out at 295 nM.

For the molecule `Cc1c(N2CCc3ncc(Oc4ccc5c(cnn5C)c4)cc3C2)nn2cnnc2c1C` [Compound 8, 6-(7,8-dimethyl-[1,2,4]triazolo[4,3-b]pyridazin-6-yl)-3-(1-methylindazol-5-yl)oxy-7,8-dihydro-5H-1,6-naphthyridine], the Emax at 30 µM was determined as 68% and the EC50 stood at 200 nM.

As to `Cc1c(N2CCc3ncc(-c4cncs4)cc3C2)nn2cnnc2c1C` [Compound 9, 5-[6-(7,8-dimethyl-[1,2,4]triazolo[4,3-b]pyridazin-6-yl)-7,8-dihydro-5H-1,6-naphthyridin-3-yl]thiazole], the Emax at 30 µM came out at 79% and the EC50 is 94.3 nM.

Consider `Cc1noc(C)c1-c1cnc2c(c1)CN(c1nn3cnnc3c(C)c1C)CC2` [Compound 10, 4-[6-(7,8-dimethyl-[1,2,4]triazolo[4,3-b]pyridazin-6-yl)-7,8-dihydro-5H-1,6-naphthyridin-3-yl]-3,5-dimethyl-isoxazole], for which the Emax at 30 µM came to 78% and the EC50 was found to be 212 nM.

Consider `COc1ccc(Oc2cnc3c(c2)CN(c2nn4cnnc4c(C)c2C)CC3)cc1Cl` [Compound 11, 3-(3-chloro-4-methoxy-phenoxy)-6-(7,8-dimethyl-[1,2,4]triazolo[4,3-b]pyridazin-6-yl)-7,8-dihydro-5H-1,6-naphthyridine], for which the Emax at 30 µM was 57% and the concentration giving a half-maximal response (EC50) is 1040 nM.

Consider `COc1ccc(Oc2cnc3c(c2)CN(c2nn4cnnc4c(C)c2C)CC3)cc1` [Compound 12, 6-(7,8-Dimethyl-[1,2,4]triazolo[4,3-b]pyridazin-6-yl)-3-(4-methoxyphenoxy)-7,8-dihydro-5H-1,6-naphthyridine], for which the Emax at 30 µM worked out at 76% and the EC50 turned out to be 191 nM.

As for `Cc1c(N2CCc3ncc(-c4ccnn4C(C)C)cc3C2)nn2cnnc2c1C` [Compound 13, 6-(7,8-Dimethyl-[1,2,4]triazolo[4,3-b]pyridazin-6-yl)-3-(2-isopropylpyrazol-3-yl)-7,8-dihydro-5H-1,6-naphthyridine], the Emax was found to be 62% and the EC50 came out at 285 nM.

Take `Cc1c(N2CCc3ncc(NC(=O)C4CC4)cc3C2)nn2cnnc2c1C` [Compound 14, N-[6-(7,8-dimethyl-[1,2,4]triazolo[4,3-b]pyridazin-6-yl)-7,8-dihydro-5H-1,6-naphthyridin-3-yl]cyclopropanecarboxamide]: the Emax at 30 µM came out at 76% and the EC50 is 1150 nM.

Take `Cc1c(N2CCc3ncc(NC(=O)C4COC4)cc3C2)nn2cnnc2c1C` [Compound 15, N-[6-(7,8-Dimethyl-[1,2,4]triazolo[4,3-b]pyridazin-6-yl)-7,8-dihydro-5H-1,6-naphthyridin-3-yl]oxetane-3-carboxamide]: the Emax amounted to 68% and the EC50 amounted to 5870 nM.

With `Cc1c(N2CCc3ncc(N4CCCCC4)cc3C2)nn2cnnc2c1C` [Compound 16, 6-(7,8-dimethyl-[1,2,4]triazolo[4,3-b]pyridazin-6-yl)-3-(1-piperidyl)-7,8-dihydro-5H-1,6-naphthyridine], the Emax at 30 µM stood at 89% and the EC50 came to 789 nM.

For `Cc1c(N2CCc3ncc(NCc4ccc(C(C)(C)O)cc4)cc3C2)nn2cnnc2c1C` [Compound 17, 2-[4-[[[6-(7,8-dimethyl-[1,2,4]triazolo[4,3-b]pyridazin-6-yl)-7,8-dihydro-5H-1,6-naphthyridin-3-yl]amino]methyl]phenyl]propan-2-ol], the Emax at 30 µM is 66% and the EC50 was found to be 936 nM.

As for `Cc1c(N2CCc3ncc(NCc4cccc(F)c4)cc3C2)nn2cnnc2c1C` [Compound 18, 6-(7,8-dimethyl-[1,2,4]triazolo[4,3-b]pyridazin-6-yl)-N-[(3-fluorophenyl)methyl]-7,8-dihydro-5H-1,6-naphthyridin-3-amine], the Emax at 30 µM worked out at 47% and the EC50 amounted to 798 nM.

Turning to `Cc1c(N2CCc3ncc(-c4ccns4)cc3C2)nn2cnnc2c1C` [Compound 19, 5-[6-(7,8-dimethyl-[1,2,4]triazolo[4,3-b]pyridazin-6-yl)-7,8-dihydro-5H-1,6-naphthyridin-3-yl]isothiazole], the Emax at 30 µM was 106% and the EC50 is 49.3 nM.

`Cc1c(N2CCc3ncc(-c4cnn(C5CCCCC5)c4)cc3C2)nn2cnnc2c1C` [Compound 20, 3-(1-cyclohexylpyrazol-4-yl)-6-(7,8-dimethyl-[1,2,4]triazolo[4,3-b]pyridazin-6-yl)-7,8-dihydro-5H-1,6-naphthyridine]: the Emax at 30 µM is 71% and the EC50 amounted to 331 nM.

Consider `Cc1c(N2CCc3ncc(-c4cnn(CC5CC5)c4)cc3C2)nn2cnnc2c1C` [Compound 21, 3-[1-(cyclopropylmethyl)pyrazol-4-yl]-6-(7,8-dimethyl-[1,2,4]triazolo[4,3-b]pyridazin-6-yl)-7,8-dihydro-5H-1,6-naphthyridine], for which the maximal response (Emax) at 30 µM is 82% and the EC50 worked out at 162 nM.
